# From patent US20200277246A1, “TREATMENT METHOD, COMPOUNDS, AND METHOD OF INCREASING TRPV2 ACTIVITY” (THE FEINSTEIN INSTITUTE FOR MEDICAL RESEARCH, priority 2015, published 2020)
# Experiments:
# Assay type in all cases: cell-based
# [1] = test system: FLS actin cytoskeleton, lamellipodia and Trpv2 distribution; test: Immunofluorescence and confocal microscopy of FLS
# Procedure: Immunofluorescence was performed as previously reported (Laragione et al., “mTOR Regulates the Invasive Properties of Synovial Fibroblasts in Rheumatoid Arthritis,” Mol. Med. 16 (9-10):352-358 (2010); Chan et al., “The GTPase Rac Regulates the Proliferation and Invasion of Fibroblast-Like Synoviocytes from Rheumatoid Arthritis Patients,” Mol. Med. 13 (5-6):297-304 (2007), which are hereby incorporated by reference in their entirety). Briefly, FLS were cultured on coverslips to 10-20% confluence, starved overnight and then pre-treated for 30 minutes, 60 minutes or 24 h with either DMSO or O1821, in the presence or absence of IL-1β 10-25 ng/ml or PDGF 50 ng/ml in complete media or in serum-free media. Cells were then fixed with 4% formaldehyde for 15 minutes at room temperature and permeabilized with PBS/Triton X-100 0.1% for 5 minutes. Non-specific binding was blocked with 5% nonfat milk. A rabbit anti-Trpv2 (Santa Cruz Biotechnology) was used as primary antibody, and a Alexa Fluor 488 (green) donkey anti-rabbit IgG (Invitrogen) used as secondary antibody. Alexa Fluor 594 (red) Phalloidin (Invitrogen) was used to stain the actin filament. The stained cells were mounted on a glass slide. A Zeiss Axiovert 200 M fluorescent microscope was used for visualization with the appropriate filters, with Zeiss Axioversion 4.7 software. Immunofluorescence microscopy was used for cell cytoskeleton scoring as previously described (Laragione et al., “CXCL10 and its Receptor CXCR3 Regulate Synovial Fibroblast Invasion in Rheumatoid Arthritis,” Arthritis Rheum. 63 (11):3274-3283 (2011), which is hereby incorporated by reference in its entirety). An Olympus FluoView 300 was used for confocal microscopy with a 600× magnification.
# [2] = test system: phosphorylated Akt; test: FLS levels of phosphorylated Akt
# [3] = test system: p65 NFκB; test: p65 NFκB nuclear location by immunofluorescence in FLS; conditions: 5, 10, 30, and 60 minutes, and 24 hours
smiles,measurement,setting,value
C=C(C)[C@@H]1CCC(C)=C[C@H]1c1c(O)cc(C)cc1O [Compound O1821],Distribution of Trpv2 in FLS,[1]; 10 μM,did not significantly change
same,"Actin cytoskeleton rearrangements, lamellipodia, cell morphology","[1]; 10 μM, 30 minutes to 24 hours, PDGF or IL-1β",no significant effect
same,"Actin cytoskeleton organization, number and distribution of lamellipodia","[1]; RA FLS, 1 μM, 30 minutes",did not affect
same,Levels of phosphorylated Akt,[2],did not affect
same,p65 NFκB activation (nuclear location),[3],did not change
